The results in this text go back to patent US7217505B2, “Method for determining whether condition is symptom of metabolic syndrome” (Cortendo AB, priority 1998, dated 2007).

Values joined by “and” are separate entries in the source; they are usually repeats but may differ in a detail not shown here. Identical values can stand only once.

This test concerns autoproduction of cortisol. Briefly: dexamethasone inhibition test: serum cortisol the morning after low oral doses of dexamethasone.
[1] abbreviates: 'dangerously' belly fat individuals.

On to `C[C@@H]1C[C@H]2[C@@H]3CCC4=CC(=O)C=C[C@]4(C)[C@@]3(F)[C@@H](O)C[C@]2(C)[C@@]1(O)C(=O)CO` [dexamethasone], for which, under setting [1], the “dose from which inhibition could be measured” value is given as 0.25 mg and the “dose of maximum inhibition” value fell in the range of 0.5 to 1 mg. In addition, under “about 20 individuals, most distinct difference at 0.5 mg”, the “critical doses with significant differences between belly fat and other individuals” value is 0.125 mg and 0.5 mg. Further, where the note is “normal weight individuals and those with general overweight but without belly fatness”, the “dose at which inhibition of the autoproduction of cortisol was already obtained” value was 0.05 mg. In addition, the “dose of maximum inhibition of the autoproduction of cortisol” value (normal weight individuals and those with general overweight but without belly fatness (for a few also at 0.5 mg)) was 1 mg.
